Source: patent publication US11622965B2, “Methods for treating lymphoid malignancies” (ZHEJIANG DTRM BIOPHARMA CO. LTD., priority 2017, dated 2023)
Values joined by “and” are separate entries in the source; they are usually repeats but may differ in a detail not shown here. Equal values may be shown once. “Also recorded” adds a separate entry of the source.

Key:
[1] = China Phase I trial of Compound A monotherapy: safety; format: in vivo, human
Protocol: (§1) The pharmacokinetics of Compound A was also evaluated.
(§2) Patients who met the following inclusion criteria were enrolled in the trials in China: i) age≥18 years, no gender limits, and provide the informed consent form; ii) B-cell lymphoma classification is based on WHO classified definition, including CLL, small lymphocytic lymphoma (SLL); CLL with 17p-; MCL; WM; DLBCL, etc.; iii) measurable lesion: NHL requires at least one≥2 cm two-dimensional lesion diameter, CLL≥5000 leukemia cells/mm^3, WM IgM≥1000 mg/dL, bone marrow lymph plasma-like cells infiltration, histopathologically diagnosed as DLBCL; iv) patients failed in lymphoma treatment at least once and have no standard therapeutic options; DLBCL patients who are not suitable for or reject autologous stem cell transplantation; and v) ECOG (Eastern Cooperative Oncology Group) performance status 0˜1. Meanwhile, patients who met any one of the following criteria were excluded: i) disease with changes of pathological tissue types (including large cell transformation); ii) patients received other BTK inhibitor therapy (China only); and iii) patients with HIV infection, or HBs-Ag or HBc-Ab positive.
(§3) No intrapatient dose escalation of Compound A was permitted.

[2] = system: 104 proteins (e.g., transporters, cell receptors, ion channels, and enzymes); assay: off-target screenings against 104 proteins
Text: (§4) Both patents are incorporated by reference herein in their entirety.

[3] = system: relapsed/refractory CLL, Hodgkin lymphoma and B-cell NHL including DLBCL; assay: U.S. Phase Ia trial of Compound A monotherapy: efficacy; format: in vivo, human; set-up: key to response: PD: disease progression; details: for time on continued monotherapy treatment: treatment continuing
Protocol: Eligibility criteria for the U.S. study were similar to the China study, but histological subtypes included patients with relapsed/refractory CLL, Hodgkin lymphoma and B-cell NHL including DLBCL. Patients who had prior exposure to BTK inhibiting agents were permitted in the trial.
(§5) Studies on the 200 mg and 300 mg cohorts were conducted in a standard 3+3 design.
(§6) The response rate, including the partial response and complete response rate, was defined according to the Revised International Working Group Criteria for non-Hodgkin's lymphoma (Cheson et al., J Clin Oncol 25:579-86 (2007)). Drug-related adverse events (AEs), including DLT, non-hematologic AEs and hematologic AEs were recorded. […] The PK indexes of single dose administration included AUClast, AUCO-∞, Cmax, tmax, t1/2, CL/F and Vd/F. The PK indexes of steady state under continuous administration included AUCss, Cmax,ss and tmax,ss.

[4] = U.S. Phase Ia trial of Compound A monotherapy: safety
Protocol: as §5
(§7) Drug-related adverse events (AEs), including DLT, non-hematologic AEs and hematologic AEs were recorded. […] The PK indexes of single dose administration included AUClast, AUCO-∞, Cmax, tmax, t1/2, CL/F and Vd/F. The PK indexes of steady state under continuous administration included AUCss, Cmax,ss and tmax,ss.

[5] = China Phase I trial of Compound A monotherapy: pharmacokinetics; format: in vivo, human
Protocol: as §1, §2, §3

toxicokinetics in rats = format: in vivo
Text: as §4

[6] = toxicokinetics in beagle dogs; format: in vivo
Text: as §4

[7] = U.S. Phase Ia trial of Compound A monotherapy: pharmacokinetics; format: in vivo; details: human, plasma, oral, Compound A Plasma Level
Protocol: as §5, §7

EGFR kinase = EGFR kinase (Homo sapiens, UniProt P00533); assay: 46 kinase panel; format: biochemical
Text: as §4

FGFR2 = FGFR2 (Homo sapiens, UniProt P21802); assay: 46 kinase panel; format: biochemical
Text: as §4

[8] = system: relapsed/refractory CLL and B-cell lymphomas; assay: China and U.S. first-in-human monotherapy trials, overall conclusions
Text: The primary endpoint of the trials was safety, while the secondary endpoints of the trials were anti-tumor activity and pharmacokinetic parameters. Patients enrolled in the trials met the following criteria: relapsed/refractory CLL and B-cell lymphoma with no available effective therapies, ≥18 years of age, and an Eastern Cooperative Oncology Group (ECOG) score≤1. […] The 3+3 dose-escalation method was used.
Relapsed/refractory B-cell lymphoma patients who met the aforementioned enrollment criteria were enrolled without randomization. […] The patients were required to stay in the hospital for 24 hours after the first dosing. […] The first 28 days of treatment was considered DLT period.
as §5, §6

[9] = 13 patients, 50-400 mg daily, 28 day dosing schedule
[10] = five patients, 21 day dosing schedule

Sequence of EGFR kinase (P00533 25-1210): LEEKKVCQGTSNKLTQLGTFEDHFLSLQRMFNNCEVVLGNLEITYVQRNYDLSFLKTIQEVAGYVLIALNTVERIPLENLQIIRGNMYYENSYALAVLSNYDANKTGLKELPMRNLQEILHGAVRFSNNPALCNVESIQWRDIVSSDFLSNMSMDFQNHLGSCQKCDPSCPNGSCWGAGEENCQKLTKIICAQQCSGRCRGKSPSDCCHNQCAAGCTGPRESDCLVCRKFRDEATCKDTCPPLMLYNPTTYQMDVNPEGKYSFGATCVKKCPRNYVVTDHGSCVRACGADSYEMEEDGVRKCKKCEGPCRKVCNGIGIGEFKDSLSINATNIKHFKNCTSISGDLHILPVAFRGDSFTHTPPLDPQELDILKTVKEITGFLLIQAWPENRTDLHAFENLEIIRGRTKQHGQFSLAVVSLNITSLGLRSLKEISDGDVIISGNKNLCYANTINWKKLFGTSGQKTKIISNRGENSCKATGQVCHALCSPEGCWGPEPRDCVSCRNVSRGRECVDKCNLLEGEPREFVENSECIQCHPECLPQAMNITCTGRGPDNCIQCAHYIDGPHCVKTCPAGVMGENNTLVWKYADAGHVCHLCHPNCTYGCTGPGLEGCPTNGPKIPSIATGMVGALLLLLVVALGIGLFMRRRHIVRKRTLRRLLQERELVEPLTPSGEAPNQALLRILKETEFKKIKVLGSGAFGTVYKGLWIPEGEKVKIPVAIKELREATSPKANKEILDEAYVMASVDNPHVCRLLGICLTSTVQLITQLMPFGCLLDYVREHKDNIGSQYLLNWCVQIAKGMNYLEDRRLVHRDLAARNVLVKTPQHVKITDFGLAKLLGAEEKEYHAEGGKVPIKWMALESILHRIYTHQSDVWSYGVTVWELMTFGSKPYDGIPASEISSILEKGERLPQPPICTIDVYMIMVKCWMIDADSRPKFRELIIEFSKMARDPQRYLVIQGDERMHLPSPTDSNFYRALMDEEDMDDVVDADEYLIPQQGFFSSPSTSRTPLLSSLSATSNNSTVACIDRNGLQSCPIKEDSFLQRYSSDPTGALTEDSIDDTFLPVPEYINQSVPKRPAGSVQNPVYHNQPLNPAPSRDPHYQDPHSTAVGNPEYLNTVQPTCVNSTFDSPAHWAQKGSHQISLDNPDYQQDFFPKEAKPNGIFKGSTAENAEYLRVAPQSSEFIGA
Sequence of FGFR2 (P21802 22-821, species assumed): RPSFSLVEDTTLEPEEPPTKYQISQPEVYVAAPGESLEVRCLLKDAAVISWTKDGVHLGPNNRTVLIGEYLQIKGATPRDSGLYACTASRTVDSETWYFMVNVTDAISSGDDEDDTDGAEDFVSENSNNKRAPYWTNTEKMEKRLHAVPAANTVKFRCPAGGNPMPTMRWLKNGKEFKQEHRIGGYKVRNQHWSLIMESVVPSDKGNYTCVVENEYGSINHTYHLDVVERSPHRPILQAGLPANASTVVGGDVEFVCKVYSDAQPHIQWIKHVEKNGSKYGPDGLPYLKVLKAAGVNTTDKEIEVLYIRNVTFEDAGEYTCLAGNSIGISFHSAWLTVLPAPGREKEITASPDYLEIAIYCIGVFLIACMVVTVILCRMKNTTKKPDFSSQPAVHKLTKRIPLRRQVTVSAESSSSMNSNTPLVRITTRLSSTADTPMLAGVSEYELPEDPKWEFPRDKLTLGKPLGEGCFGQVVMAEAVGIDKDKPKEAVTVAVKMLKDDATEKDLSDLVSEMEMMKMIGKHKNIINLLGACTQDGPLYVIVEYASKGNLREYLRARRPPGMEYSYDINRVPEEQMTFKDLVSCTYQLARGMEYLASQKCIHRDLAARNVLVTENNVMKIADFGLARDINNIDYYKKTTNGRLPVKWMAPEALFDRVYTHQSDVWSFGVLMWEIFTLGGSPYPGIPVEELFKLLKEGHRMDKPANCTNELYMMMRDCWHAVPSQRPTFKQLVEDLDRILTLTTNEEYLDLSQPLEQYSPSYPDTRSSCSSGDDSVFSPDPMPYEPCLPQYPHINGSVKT

C=CC(=O)N1CC[C@@H](n2nc(-c3ccc(Oc4c(F)c(F)cc(F)c4F)cc3F)c3c(N)ncnc32)C1 [Compound A, 1-((R)-3-(4-amino-3-(2-fluoro-4-(2,3,5,6-tetrafluorophenoxy)phenyl)-1H-pyrazolo[3,4-d]pyrimidin-1-yl)pyrrolidin-1-yl)prop-2-en-1-one]
Grade 2, 4 or 5 hematologic events [1]: No Grade 2, 4 or 5 hematologic events occurred
Grade 2, 4 or 5 non-hematologic events [1]: No Grade 2, 4 or 5 non-hematologic events occurred
anemia, patients [1, 9]: 23.1%
leucopenia, patients [1, 9]: 23.1%
neutropenia, patients [1, 9]: 23.1%
dose-limiting toxicity ([1]; 50-400 mg daily): No dose-limiting toxicity occurred
grade of the majority of drug-related AEs ([1]; 28 day dosing schedule): grade 1
Grade 1 alanine aminotransferase (ALT) elevation, patients ([1]; one patient): 7.7%
Grade 1 neutropenia, patients ([1]; one patient): 7.7%
Grade 3 pneumonia, patients ([1]; one patient): 7.7%
Grade 3 neutropenia, patients ([1]; two patients): 15.4%
off-target inhibitory activities [2]: no off-target inhibitory activities
response ([3]; B-cell lymphoma patient): 1SD
time on monotherapy until off study for disease progression ([3]; B-cell lymphoma, 50 mg): five months
response ([3]; CLL patients (N=2)): 1PR, 1SD
time on continued monotherapy treatment ([3]; CLL, 100 mg): 13 months
time on monotherapy until off study for disease progression ([3]; CLL, 200 mg): 8 months
response ([3]; DLBCL patient): PD
time on monotherapy until off study for disease progression ([3]; DLBCL, 200 mg): 2 months
response ([3]; MZL patient): 1PR
time on continued monotherapy treatment ([3]; MZL): 11 months
discontinuation due to AEs and deaths ([4]; five patients): No patient discontinued study treatment due to AEs and no patient died on-study or within the 30-day follow-up period
hematologic single patient events ([4]; five patients): Grade 3 thrombocytopenia and Grade 3 neutropenia
non-hematologic single patient events ([4]; five patients): Grade 3 lung infection, bronchitis, myalgia, nausea, fatigue and purpura (all Grade 1)
anemia, patients ([4]; five patients, 50-200 mg daily, 21 day dosing schedule): 60%
arthralgia, patients [4, 10]: 40%
contusion, patients [4, 10]: 40%
grade of adverse events [4, 10]: mostly Grade 1 and 2
upper respiratory infection, patients [4, 10]: 40%
tolerability ([4]; three additional patients, 300 mg): well tolerated
Compound A Plasma Levels ([5]; Day 1, 100 mg, 2 h): 107 ng/mL and 150 ng/mL
Compound A Plasma Levels ([5]; Day 1, 100 mg, 6 h): 22.8 ng/mL and 29.4 ng/mL
Compound A Plasma Levels ([5]; Day 1, 400 mg, 4 h): 243 ng/mL and 184 ng/mL
Compound A Plasma Levels ([5]; Day 1, 400 mg, 6 h): 107 ng/mL and 130 ng/mL
Compound A Plasma Levels ([5]; Day 8, 100 mg, 2 h): 135 ng/mL and 83.0 ng/mL
Compound A Plasma Levels ([5]; Day 8, 100 mg, 24 h): 1.73 ng/mL and 1.27 ng/mL
Compound A Plasma Levels ([5]; Day 8, 200 mg, 0 h): 5.13 ng/mL and 3.53 ng/mL
Compound A Plasma Levels ([5]; Day 8, 200 mg, 1 h): 239 ng/mL
Compound A Plasma Levels ([5]; Day 8, 200 mg, 2 h): 273 ng/mL and 295 ng/mL
Compound A Plasma Levels ([5]; Day 8, 400 mg, 4 h): 214 ng/mL and 217 ng/mL
concentration at 0 h ([5]; human, plasma, oral, 50 mg, Compound A Plasma Levels, Day 1, 50 mg, 0 h): 0 ng/mL
concentration at 24 h ([5]; human, plasma, oral, 50 mg, Compound A Plasma Levels, Day 1, 50 mg, 24 h): 0 ng/mL
concentration at 24 h ([5]; human, plasma, oral, 50 mg, Compound A Plasma Levels, Day 8, 50 mg, 24 h): 0 ng/mL
concentration at 0 h ([5]; human, plasma, oral, 100 mg, Compound A Plasma Levels, Day 1, 100 mg, 0 h): 0 ng/mL
concentration at 2 h ([5]; human, plasma, oral, 100 mg, Compound A Plasma Levels, Day 1, 100 mg, 2 h): 192 ng/mL
concentration at 6 h ([5]; human, plasma, oral, 100 mg, Compound A Plasma Levels, Day 1, 100 mg, 6 h): 29.1 ng/mL
concentration at 2 h ([5]; human, plasma, oral, 100 mg, Compound A Plasma Levels, Day 8, 100 mg, 2 h): 166 ng/mL
concentration at 24 h ([5]; human, plasma, oral, 100 mg, Compound A Plasma Levels, Day 8, 100 mg, 24 h): 1.34 ng/mL
concentration at 0 h ([5]; human, plasma, oral, 200 mg, Compound A Plasma Levels, Day 1, 200 mg, 0 h): 0 ng/mL
concentration at 0 h ([5]; human, plasma, oral, 200 mg, Compound A Plasma Levels, Day 8, 200 mg, 0 h): 3.69 ng/mL
concentration at 1 h ([5]; human, plasma, oral, 200 mg, Compound A Plasma Levels, Day 8, 200 mg, 1 h): 369 ng/mL
concentration at 2 h ([5]; human, plasma, oral, 200 mg, Compound A Plasma Levels, Day 8, 200 mg, 2 h): 537 ng/mL
concentration at 0 h ([5]; human, plasma, oral, 400 mg, Compound A Plasma Levels, Day 1, 400 mg, 0 h): 0 ng/mL
concentration at 4 h ([5]; human, plasma, oral, 400 mg, Compound A Plasma Levels, Day 1, 400 mg, 4 h): 134 ng/mL
concentration at 6 h ([5]; human, plasma, oral, 400 mg, Compound A Plasma Levels, Day 1, 400 mg, 6 h): 85.9 ng/mL
concentration at 4 h ([5]; human, plasma, oral, 400 mg, Compound A Plasma Levels, Day 8, 400 mg, 4 h): 159 ng/mL
toxicokinetics properties (toxicokinetics in rats): Improved toxicokinetics properties
toxicokinetics properties [6]: Improved toxicokinetics properties
concentration at 0 h ([7]; 50 mg, Day 1, 50 mg): 0 ng/mL
concentration at 0.5 h ([7]; 50 mg, Day 1, 50 mg): 2.84 ng/mL
concentration at 1 h ([7]; 50 mg, Day 1, 50 mg): 26.9 ng/mL
concentration at 2 h ([7]; 50 mg, Day 1, 50 mg): 63.4 ng/mL
concentration at 4 h ([7]; 50 mg, Day 1, 50 mg): 15.3 ng/mL
concentration at 6 h ([7]; 50 mg, Day 1, 50 mg): 6.44 ng/mL
concentration at 24 h ([7]; 50 mg, Day 1, 50 mg): 0 ng/mL
concentration at 0 h ([7]; 100 mg, Day 1, 100 mg): 9.04 ng/mL
concentration at 0.5 h ([7]; 100 mg, Day 1, 100 mg): 44.9 ng/mL
concentration at 1 h ([7]; 100 mg, Day 1, 100 mg): 53.3 ng/mL
concentration at 2 h ([7]; 100 mg, Day 1, 100 mg): 21.3 ng/mL
concentration at 4 h ([7]; 100 mg, Day 1, 100 mg): 13.3 ng/mL
concentration at 6 h ([7]; 100 mg, Day 1, 100 mg): 13.3 ng/mL
concentration at 24 h ([7]; 100 mg, Day 1, 100 mg): 3.06 ng/mL
concentration at 0 h ([7]; 200 mg, Day 1, 200 mg): 0 ng/mL
concentration at 0.5 h ([7]; 200 mg, Day 1, 200 mg): 0 ng/mL
inhibition of EGFR (EGFR kinase; 46 kinase panel): partial inhibition
IC50 (EGFR kinase; read-out: IC50 against EGFR kinase): 110 nM
inhibition of FGFR2 (FGFR2): partial inhibition
cycles of monotherapy tolerated ([8]; China and U.S. trials): up to 23 cycles
maximum tolerated dose ([8]; Compound A monotherapy, China and U.S. trials): had not been reached
exposures to Compound A ([8]; all patients at all of the dose levels): adequate exposures
efficacy in WM, MZL, and SLL/CLL patients ([8]; orally 50-400 mg once daily): preliminary efficacy was observed; also recorded: Efficacy of the Compound has also been observed
safety and tolerability ([8]; patients with relapsed/refractory CLL and B-cell lymphomas, China and U.S. trials): safe and well tolerated
